System: luciferase gene expression in HEK 293 cells in response to Comp. 004
Assay: Screen of riboswitch constructs with 12C6-1 variant aptamers (libraries N1-N5) against Comp. 004, luciferase in HEK 293 cells
Type: cell-based, human
In short: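 Riboswitch constructs carrying 12C6-1 aptamer variants, randomized in J2-4, J2-3/J3-3a/J3a-2/P3, L3a, J4-5/J5-4/P4 or L5 regions (libraries N1-N5), cloned into an intron-exon-intron cassette driving luciferase. Screened in HEK 293 cells with 25 µM Comp. 004; read-out is fold induction of gene expression versus parent Luci-12C6-1.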

[1] = library N2 variant aptamers (J2-3, P3-J3-3a, J3a-2 randomized) of 12C6-1 in riboswitch constructs, in response to Comp. 004, HEK 293 cells
[2] = library N5 variant aptamers (L5, X16-X21 randomized) of 12C6-1 in riboswitch constructs, in response to Comp. 004 treatment, HEK 293 cells
[3] = library N1 (J2-4), HEK 293, 25 M [sic] Comp. 004

Substance	Fold (induction of luciferase gene expression) [2]	further results
N2_2D1 (CTGGGGAGTCCTTCATGC; chemistry not given here)		Fold (induction of luciferase gene expression) [1]: 1.1 fold
N5_1F9 (CTGGGGAGTCCT; chemistry not given here)	685.1 fold	
N5_6G6 (CTGGGGAGTCCT; chemistry not given here)	1004.4 fold	
N5_1F6 (CTGGGGAGTCCT; chemistry not given here)	247.6 fold	
N2_2E10 (DNA CTGGGGAGTCCTTCATGC; chemistry not given here)		Fold (induction of luciferase gene expression) [1]: 1.2 fold
N5_1C10 (CTGGGGAGTCCT; chemistry not given here)	693.8 fold	
N5_1C9 (CTGGGGAGTCCT; chemistry not given here)	915.3 fold	
N5_6E6 (CTGGGGAGTCCT; chemistry not given here)	1032.8 fold	
N1_2E4 (CTGGGGAGTCCTTCATGCGGGGC; chemistry not given here)		Fold (induction of luciferase gene expression) [3]: 10.44 fold
N2_2E3 (DNA CTGGGGAGTCCTTCATGC; chemistry not given here)		Fold (induction of luciferase gene expression) [1]: 1.3 fold
N1_2H2 (CTGGGGAGTCCTTCATGCGGGGC; chemistry not given here)		Fold (induction of luciferase gene expression) [3]: 2.85 fold
N5_1E11 (CTGGGGAGTCCT; chemistry not given here)	1095.6 fold	
N2_2C9 (CTGGGGAGTCCTTCATGC; chemistry not given here)		Fold (induction of luciferase gene expression) [1]: 1.2 fold
N1_2E3 (CTGGGGAGTCCTTCATGCGGGGC; chemistry not given here)		Fold (induction of luciferase gene expression) [3]: 5.79 fold
N2_2D3 (DNA CTGGGGAGTCCTTCATGC; chemistry not given here)		Fold (induction of luciferase gene expression) [1]: 0.9 fold
N1_2F9 (CTGGGGAGTCCTTCATGCGGGGC; chemistry not given here)		Fold (induction of luciferase gene expression) [3]: 1.71 fold

Substance	Fold (induction of luciferase gene expression) [2]	further results
N5_7E7 (DNA CTGGGGAGTCCT; chemistry not given here)	870.2 fold	
N1_2E8 (CTGGGGAGTCCTTCATGCGGGGC; chemistry not given here)		Fold (induction of luciferase gene expression) [3]: 5.81 fold
N5_1G4 (CTGGGGAGTCCT; chemistry not given here)	86.0 fold	
N5_12E5 (CTGGGGAGTCCT; chemistry not given here)	1898.6 fold	
N5_7C8 (DNA CTGGGGAGTCCT; chemistry not given here)	1313.8 fold	
N5_1D12 (CTGGGGAGTCCT; chemistry not given here)	3.6 fold	
N5_1A5 (CTGGGGAGTCCT; chemistry not given here)	291.5 fold	
N5_8D1 (DNA CTGGGGAGTCCT; chemistry not given here)	1139.6 fold	
N1_2D1 (CTGGGGAGTCCTTCATGCGGGGC; chemistry not given here)		Fold (induction of luciferase gene expression) [3]: 4.38 fold
N2_2B4 (CTGGGGAGTCCTTCATGC; chemistry not given here)		Fold (induction of luciferase gene expression) [1]: 0.8 fold
N2_2A1 (CTGGGGAGTCCTTCATGC; chemistry not given here)		Fold (induction of luciferase gene expression) [1]: 1.0 fold
N1_2F11 (CTGGGGAGTCCTTCATGCGGGGC; chemistry not given here)		Fold (induction of luciferase gene expression) [3]: 150.18 fold
N5_7H5 (DNA CTGGGGAGTCCT; chemistry not given here)	848.4 fold	
N5_3A2 (CTGGGGAGTCCT; chemistry not given here)	718.0 fold	
N1_2G8 (CTGGGGAGTCCTTCATGCGGGGC; chemistry not given here)		Fold (induction of luciferase gene expression) [3]: 8.46 fold
N5_5C4 (CTGGGGAGTCCT; chemistry not given here)	1235.2 fold	

Source: US20250101436A1, “APTAMERS AND SMALL MOLECULE LIGANDS” (MeiraGTx UK II Limited, priority 2021, published 2025)
